Legend:
[1] = Stability in water: time evolution in D2O followed by 1H NMR (hydrolysis); assay type: physicochemical; settings: 15 mM solution in D2O at 25 °C, read-out: t1/2 (hydrolysis) (converted)
Experimental: One of the critical factors that conditions the viability and applicability of functional dyes 3 and 4 as fluorescent mitochondrial probes is their stability in water, since these compounds contain two potentially labile B-O bonds linking the fluorophore with the carnitine substituent. This stability was determined analyzing the time evolution of 3 and 4 in a 15 mM solution in D2O at 25 °C using ^1H NMR. This technique makes it possible not only to define their stability, but also to identify the possible degradation products (Diagram 2). Both probes are hydrolyzed, generating free carnitine and the corresponding 4,4-dihydroxy-BODIPY derivatives 5 and 6. [drawing 8]
Compound 3 is quickly hydrolyzed (t1/2 = 10 min); however, the greater substitution of the tetramethylated derivative in 4 gives it greater stability (t1/2 = 6 h), which promotes its use as a fluorescent marker in live cells. Contrary to what might be believed, the generation of free carnitine and of the corresponding BODIPY derivatives 5 and 6 at physiological pH is, indeed, an advantage for its application in cell labels. Thus, (R)-carnitine is incorporated into the mitochondrial metabolism, while the boron of the hydrolyzed BODIPY can covalently bond to poly-hydroxilated molecules (for example, saccharides and glycoproteins), generating cyclic boronic esters. […]

SCC38 cells = test: Inhibition of mitochondrial staining by (R)-palmitoylcarnitine (CACT substrate), flow cytometry; assay type: cell-based, human; settings: co-incubation, probe 50 nm, (R)-palmitoylcarnitine 100, 250 and 500 nM
Experimental: The SCC38 cells were co-incubated with the indicated concentrations of (R)-palmitoylcarnitine and 50 nM of 4 (A) or 50 nM of MitoTracker (B) before analyzing by flow cytometry. The data represent the mean fluorescence intensity (MFI) of the stained cells (upper panels) and representative images of the cytometry profiles (lower panels). • Fig. 7.
To test if CACT was in fact involved in the channeling of 4 to the mitochondrial matrix, we firstly studied the effect of (R)-(+)-palmitoylcarnitine, a natural CACT substrate, in cell labeling by 4.

[2] = Photophysical characterization: absorption and fluorescence spectra; assay type: physicochemical; settings: for λfl: Fluorescence peak wavelength: excitation at 490 nm; for φf: Quantum yield: reference PM567 in ethanol
Experimental: The photophysical characterization of probes 3 and 4 was carried out analyzing the corresponding absorption and fluorescence spectra in the UV-visible region of the spectrum.
Its photophysical behavior is dependent on the degree of substitution of the BODIPY, since the alkylation of the chromatophore induces sufficient steric hindrance to reduce the free rotation of the 8-mesityl group, a process that entails a significant reduction in fluorescence efficiency. Thus, probe 4 in water stands out for having a high molar absorption coefficient (3.8 × 10^4 M^-1 cm^-1 at 499 nm) and a very efficient fluorescence emission at 511 nm, with a quantum yield of up to 80%.

half-life at 15000 µM [1]: 6 h
photostability [2]: high photostability
kfl: Radiative decay constant ([2]; Acetone): 1.27 10^8s^- 1
knr: Non-Radiative decay constant ([2]; Acetone): 0.16 10^8s^- 1
Δv: Stokes shift ([2]; Acetone): 504 cm⁻¹
εmax: Molar extinction coefficient at the absorption peak ([2]; Acetone): 5.1 × 10^4 (M^-1 cm^- 1)
λab: Absorption peak wavelength ([2]; Acetone): 501 nm
τ: Fluorescence lifetime ([2]; Acetone): 7.00 ns
λfl: Fluorescence peak wavelength ([2]; Acetone): 514 nm
φf: Quantum yield ([2]; Acetone): 0.89
kfl: Radiative decay constant ([2]; Acetonitrile): 1.21 10^8s^- 1
knr: Non-Radiative decay constant ([2]; Acetonitrile): 0.20 10^8s^- 1
Δv: Stokes shift ([2]; Acetonitrile): 469 cm⁻¹
εmax: Molar extinction coefficient at the absorption peak ([2]; Acetonitrile): 4.9 × 10^4 (M^-1 cm^- 1)
λab: Absorption peak wavelength ([2]; Acetonitrile): 500 nm
τ: Fluorescence lifetime ([2]; Acetonitrile): 7.12 ns
λfl: Fluorescence peak wavelength ([2]; Acetonitrile): 512 nm
φf: Quantum yield ([2]; Acetonitrile): 0.86
kfl: Radiative decay constant ([2]; Chloroform): 1.36 10^8s^- 1
knr: Non-Radiative decay constant ([2]; Chloroform): 0.22 10^8s^- 1
Δv: Stokes shift ([2]; Chloroform): 424 cm⁻¹
εmax: Molar extinction coefficient at the absorption peak ([2]; Chloroform): 4.8 × 10^4 (M^-1 cm^- 1)
λab: Absorption peak wavelength ([2]; Chloroform): 504 nm
τ: Fluorescence lifetime ([2]; Chloroform): 6.32 ns
λfl: Fluorescence peak wavelength ([2]; Chloroform): 514 nm
φf: Quantum yield ([2]; Chloroform): 0.86
kfl: Radiative decay constant ([2]; Ethanol): 1.22 10^8s^- 1
knr: Non-Radiative decay constant ([2]; Ethanol): 0.18 10^8s^- 1
Δv: Stokes shift ([2]; Ethanol): 427 cm⁻¹
εmax: Molar extinction coefficient at the absorption peak ([2]; Ethanol): 5.1 × 10^4 (M^-1 cm^- 1)
λab: Absorption peak wavelength ([2]; Ethanol): 502 nm
τ: Fluorescence lifetime ([2]; Ethanol): 7.10 ns
λfl: Fluorescence peak wavelength ([2]; Ethanol): 513 nm
φf: Quantum yield ([2]; Ethanol): 0.87
kfl: Radiative decay constant ([2]; Water): 1.14 10^8s^- 1
knr: Non-Radiative decay constant ([2]; Water): 0.23 10^8s^- 1
Δv: Stokes shift ([2]; Water): 470 cm⁻¹
εmax: Molar extinction coefficient at the absorption peak ([2]; Water): 3.8 × 10^4 (M^-1 cm^- 1)
λab: Absorption peak wavelength ([2]; Water): 499 nm
τ: Fluorescence lifetime ([2]; Water): 7.30 ns
λfl: Fluorescence peak wavelength ([2]; Water): 511 nm
φf: Quantum yield ([2]; Water): 0.83
fluorescence emission (wavelength) ([2]; in water): 511 nm
quantum yield ([2]; in water): up to 80%
molar absorption coefficient ([2]; in water, at 499 nm): 38000 M⁻¹ cm⁻¹
SMILES: CC1=CC(C)=[N+]2C1=C(c1c(C)cc(C)cc1C)c1c(C)cc(C)n1[B-]21OC(=O)C[C@H](C[N+](C)(C)C)O1 (some centres unmarked) [Compound 4]
effect of (R)-palmitoylcarnitine on fluorescence intensity (SCC38 cells): concentration-dependent reduction of fluorescence intensity
tendency towards H- or J- type aggregation ([2]; concentrations as high as 10^-4 M): not exhibit any tendency towards H- or J- type aggregation

Source: EP3650451A1, “COMPOUNDS AND THEIR USES AS FLUORESCENT PROBES” (Consejo Superior de Investigaciones Cientificas, priority 2017, dated 2019)
